Results from publication PMC8447191, “Peptide Amphiphilic-Based Supramolecular Structures with Anti-HIV-1 Activity” (Bioconjugate Chemistry, 2021).
Where two headings read alike, the source gives them in different places. *1 amine or outer side, *2 acyl side, *3 side chain or, on linkers, in order; H or OH if unused. Where a SMILES comes first, the peptide text is derived from it. Side-chain parts run from the residue outwards. The star is where a group is joined. X1 = CC(C)CCC[C@@H](C)[C@H]1CC[C@H]2[C@@H]3CC=C4C[C@@H](OC(=O)CSC[C@H](N)C(=O)*)CC[C@]4(C)[C@H]3CC[C@]12C; PEG28 = NCCOCCOCCOCCOCCOCCOCCOCCOCCOCCOCCOCCOCCOCCOCCOCCOCCOCCOCCOCCOCCOCCOCCOCCOCCOCCOCCOCCOCCC(=O)O; N(octadecyl)2 = CCCCCCCCCCCCCCCCCCN(CCCCCCCCCCCCCCCCCC)*; NHOctadecyl = CCCCCCCCCCCCCCCCCCN*; Suc = O=C(CCC(=O)[*:2])[*:1]

Columns and labels:
HIV-1BaL [1] = type: cell-based; settings: for IC50 / IC95: HIV-1BaL, TZM-bl cells, peptide 10-0.00061 μM for 1 h at 37 °C before virus, luciferase after 48 h, sigmoid fit, mean of triplicates; for SI (CC50/IC50): ratio of CC50 (MTT assay) to IC50 (HIV-1BaL, TZM-bl cells)
Protocol: HIV-1BaL[52] was provided by the NIH AIDS Research & Reference Reagent Program (http://www.aidsreagent.org/). Viral stock was prepared by passage through activated PBMCs[53] for 11 days.
Luciferase-reporter HeLa cells stably transfected to express CD4 and CCR5; TZM-bl cells[54]−[56] were grown in Dulbecco’s Minimal Essential Medium (DMEM) (Sigma-Aldrich, Inc., St. Louis, MO) containing 10% fetal calf serum (FCS), 2 mM L-glutamine, and antibiotics (100 U of penicillin/mL, 100 μg of streptomycin/mL) at 37 °C in an atmosphere containing 5% CO2.
(§1) All inhibition assays in cellular and tissue explants models were performed using a standardized amount of virus culture supernatant normalized for infectivity. TZM-bl cells were incubated with serial dilutions of peptides (from 10 μM to 0.00061 μM) for 1 h at 37 °C, prior to challenge with HIV-1BaL. Luciferase expression (r.l.u. values) was determined after 48 h. Alternatively, tissue explants were incubated with serial dilutions of peptide (from 100 μM to 0.1 μM) for 1 h before virus (10^4 TCID50/mL) was added for 2 h. Explants were then washed four times with PBS to remove unbound virus and drug. Colorectal explants were then transferred onto gelfoam rafts (Welbeck Pharmaceuticals, UK) and cultured for 15 days as described previously[57] […]. Explants were cultured for up to 15 days in the absence of peptide. Approximately 50% of the supernatants were harvested every 2–3 days and explants were re-fed with fresh media. The extent of viral replication in tissue explants was determined by measuring the p24 antigen concentration in supernatants (INNOTEST HIV antigen mAb; Fujirebio Europe, Belgium). The extent of inhibition by each peptide was calculated. The percentage of inhibition was normalized relative to the r.l.u, for TZM-bl cells, or p24, for tissue explants, values obtained for cells or explants cultured in the absence of virus (100% inhibition) and for cells or explants infected with virus in the absence of peptide (0% inhibition). Data are the mean (±SEM) of triplicates. When a dose–response curve was obtained, IC50 and, if possible, IC95 values were calculated from sigmoid curve fits (GraphPad Prism). For all curves, R^2 is >0.7.

[2] = not given; remark: listed apart in the source
[3] = Visual stability and aspect of POPC vesicles mixed with PAs (SAXS samples); type: physicochemical; settings: POPC 20 mM + 2 mM PA, 0.5% DMSO
Protocol: In Figure 5A,B, we show the spectra corresponding to POPC 20 mM and POPC 20 mM + 2 mM PAs (all of them in the presence of 0.5% DMSO). The band centered at 1.2 nm^–1 and the secondary band at 3.2 nm^–1 were typical of unilamellar vesicles.[35]
The incorporation of PAs had some distinct consequences. The first and more obvious one is the distinction between stable and unstable systems.

MTT cytotoxicity assay = type: cell-based; settings: human, HeLa-env cells, PAs coassembled with 5% FAM, 40-2.3 μM, absorbance 560 nm
Protocol: The metabolic activity of the cell line, related to the cytotoxic effect of the compounds to be tested, is measured after 24 h using the MTT assay. This assay is based on the metabolic reduction of 3-(4,5-dimethylthiazol-2-yl)-2,5-diphenyl-2H-tetrazolium bromide (MTT), carried out by the mitochondrial enzyme succinate dehydrogenase, in a colored compound of blue color (formazan) that can be monitored by absorbance spectroscopy at 560 nm, allowing determination of the mitochondrial functionality of the treated cells.
The HeLa-env cell line is seeded in 96-well plates with an initial density of 15,000 cells per well in 100 μL of culture medium (Dulbecco’s modified Eagle’s medium, DMEM, with 10% FBS added) and incubated for 24 h at 37 °C and 5% CO2 to allow their adhesion. The cell monolayers are washed with PBS, and then 100 μL of PAs formulations (peptide amphiphiles coassembled with 5% FAM) are added in a concentration range from 40 μM to 2.3 μM. The plates are kept in incubation for further 24 h.
At the end of the incubation time, the cells are incubated for 3 h with 1 mg/mL of MTT, dissolved in culture medium without FBS, to allow the formation of formazan crystals. Subsequently, 100 μL of DMSO are added to wells, stirring the plates for 30 min at room temperature to facilitate the complete dissolution of the crystals. Finally, the absorbance at 560 nm is measured in a microplate reader.
The results are expressed as relative percentage between absorbance of PA formulations against absorbance of its DMSO controls and CC50 and CC25 values are taken from dose–response curves.

HIV-1BaL [4] = type: cell-based; settings: colorectal tissue explants, peptide 100-0.1 μM for 1 h before and 2 h during virus (pulse, 3 h), p24 ELISA at day 15, mean (SEM) of triplicates
Source text: Human tissue explants: Surgically resected specimens of colorectal tissues were collected from HIV negative patients at St. Mary’s Hospital, Imperial College Healthcare NHS Trust, London, UK. All tissues were collected after receiving signed informed consent from all patients through the Imperial College Healthcare Tissue Bank approved by Research Ethics Committee Wales (IRAS 17/WA/0161). On arrival in the laboratory, resected tissue was cut into 2–3 mm^3 explants comprising both epithelial and muscularis mucosae as described previously.[57] Tissue explants were maintained with DMEM containing 10% fetal calf serum, 2 mM L-glutamine, and antibiotics (100 U of penicillin/mL, 100 μg of streptomycin/mL, 80 μg of gentamicin/mL) at 37 °C in an atmosphere containing 5% CO2.
as §1

[5] = not given; remark: listed apart in the source

| Structure (SMILES) | IC50 (HIV-1BaL [1]) | IC95 (HIV-1BaL [1]) | Trp fluorescence emission maximum (λmax) | lamellar characteristic distance [2] | stability / aspect of the sample [3] | CC50 at 24 h (MTT cytotoxicity assay) | SI (CC50/IC50) (HIV-1BaL [1]) | IC50 (HIV-1BaL [4]) | IC95 (HIV-1BaL [4]) | lamellar liquid crystal periodicity [5] |
| --- | --- | --- | --- | --- | --- | --- | --- | --- | --- | --- |
| CC[C@H](C)[C@H](NC(=O)[C@@H](NC(=O)CNC(=O)[C@H](CCCNC(=N)N)NC(=O)[C@H](Cc1c[nH]c2ccccc12)NC(=O)[C@H](Cc1ccccc1)NC(=O)[C@H](CC(=O)O)NC(=O)[C@H](Cc1ccccc1)NC(=O)[C@@H]1CCCN1C(=O)[C@@H](NC(=O)[C@H](CCCCN)NC(=O)[C@H](Cc1c[nH]c2ccccc12)NC(=O)[C@H](CC(C)C)NC(=O)[C@H](Cc1ccc(O)cc1)NC(=O)[C@H](CCC(=O)O)NC(=O)[C@H](CC(C)C)NC(=O)[C@@H](NC(=O)[C@@H](N)Cc1c[nH]c2ccccc12)[C@@H](C)CC)C(C)C)C(C)C)C(N)=O [E1P47] (H-WILEYLWKVPFDFWRGVI-NH2) | 7.26 µM | 28.21 µM | 356 nm | – | – | – | – | – | – | – |
| CCCCCCCCCCCCCCCCCCN(CCCCCCCCCCCCCCCCCC)C(=O)CCC(=O)NCCOCCOCCOCCOCCOCCOCCOCCOCCOCCOCCOCCOCCOCCOCCOCCOCCOCCOCCOCCOCCOCCOCCOCCOCCOCCOCCOCCOCCC(=O)NCCCC[C@H](NC(=O)[C@@H](NC(=O)[C@@H](NC(=O)CNC(=O)[C@H](CCCNC(=N)N)NC(=O)[C@H](Cc1c[nH]c2ccccc12)NC(=O)[C@H](Cc1ccccc1)NC(=O)[C@H](CC(=O)O)NC(=O)[C@H](Cc1ccccc1)NC(=O)[C@@H]1CCCN1C(=O)[C@@H](NC(=O)[C@H](CCCCN)NC(=O)[C@H](Cc1c[nH]c2ccccc12)NC(=O)[C@H](CC(C)C)NC(=O)[C@H](Cc1ccc(O)cc1)NC(=O)[C@H](CCC(=O)O)NC(=O)[C@H](CC(C)C)NC(=O)[C@@H](NC(=O)[C@@H](N)Cc1c[nH]c2ccccc12)[C@@H](C)CC)C(C)C)C(C)C)[C@@H](C)CC)C(N)=O [C-PAdialkyl] (H-WILEYLWKVPFDFWRGVIK([PEG28-Suc-N(octadecyl)2])-NH2) | – | – | – | 5.7 nm | bluish | 25 µM | – | – | – | – |
| CCCCCCCCCCCCCCCCCCNC(=O)CCC(=O)NCCOCCOCCOCCOCCOCCOCCOCCOCCOCCOCCOCCOCCOCCOCCOCCOCCOCCOCCOCCOCCOCCOCCOCCOCCOCCOCCOCCOCCC(=O)NCCCC[C@H](NC(=O)[C@@H](NC(=O)[C@@H](NC(=O)CNC(=O)[C@H](CCCNC(=N)N)NC(=O)[C@H](Cc1c[nH]c2ccccc12)NC(=O)[C@H](Cc1ccccc1)NC(=O)[C@H](CC(=O)O)NC(=O)[C@H](Cc1ccccc1)NC(=O)[C@@H]1CCCN1C(=O)[C@@H](NC(=O)[C@H](CCCCN)NC(=O)[C@H](Cc1c[nH]c2ccccc12)NC(=O)[C@H](CC(C)C)NC(=O)[C@H](Cc1ccc(O)cc1)NC(=O)[C@H](CCC(=O)O)NC(=O)[C@H](CC(C)C)NC(=O)[C@@H](NC(=O)[C@@H](N)Cc1c[nH]c2ccccc12)[C@@H](C)CC)C(C)C)C(C)C)[C@@H](C)CC)C(N)=O [C-PAmonoalkyl] (H-WILEYLWKVPFDFWRGVIK([PEG28-Suc-NHOctadecyl])-NH2) | 0.08 µM | 5.60 µM | – | 4.7 nm | bluish | 20 µM | 250 | 3.48 µM | 24.29 (3.61) μM | – |
| CC[C@H](C)[C@H](NC(=O)[C@@H](NC(=O)CNC(=O)[C@H](CCCNC(=N)N)NC(=O)[C@H](Cc1c[nH]c2ccccc12)NC(=O)[C@H](Cc1ccccc1)NC(=O)[C@H](CC(=O)O)NC(=O)[C@H](Cc1ccccc1)NC(=O)[C@@H]1CCCN1C(=O)[C@@H](NC(=O)[C@H](CCCCNC(=O)CCOCCOCCOCCOCCOCCOCCOCCOCCOCCOCCOCCOCCOCCOCCOCCOCCOCCOCCOCCOCCOCCOCCOCCOCCOCCOCCOCCOCCNC(=O)[C@@H](N)CSCC(=O)O[C@H]1CC[C@@]2(C)C(=CC[C@H]3[C@@H]4CC[C@H]([C@H](C)CCCC(C)C)[C@@]4(C)CC[C@@H]32)C1)NC(=O)[C@H](Cc1c[nH]c2ccccc12)NC(=O)[C@H](CC(C)C)NC(=O)[C@H](Cc1ccc(O)cc1)NC(=O)[C@H](CCC(=O)O)NC(=O)[C@H](CC(C)C)NC(=O)[C@@H](NC(=O)[C@@H](N)Cc1c[nH]c2ccccc12)[C@@H](C)CC)C(C)C)C(C)C)C(N)=O [K-PAchol] (H-WILEYLWK([PEG28-X1])VPFDFWRGVI-NH2) | 0.09 µM | – | – | – | bluish | > 40 µM | – | – | – | 4.8 nm |
| CCCCCCCCCCCCCCCCCCNC(=O)CCC(=O)NCCOCCOCCOCCOCCOCCOCCOCCOCCOCCOCCOCCOCCOCCOCCOCCOCCOCCOCCOCCOCCOCCOCCOCCOCCOCCOCCOCCOCCC(=O)N[C@@H](Cc1c[nH]c2ccccc12)C(=O)N[C@H](C(=O)N[C@@H](CC(C)C)C(=O)N[C@@H](CCC(=O)O)C(=O)N[C@@H](Cc1ccc(O)cc1)C(=O)N[C@@H](CC(C)C)C(=O)N[C@@H](Cc1c[nH]c2ccccc12)C(=O)N[C@@H](CCCCN)C(=O)N[C@H](C(=O)N1CCC[C@H]1C(=O)N[C@@H](Cc1ccccc1)C(=O)N[C@@H](CC(=O)O)C(=O)N[C@@H](Cc1ccccc1)C(=O)N[C@@H](Cc1c[nH]c2ccccc12)C(=O)N[C@@H](CCCNC(=N)N)C(=O)NCC(=O)N[C@H](C(=O)N[C@H](C(N)=O)[C@@H](C)CC)C(C)C)C(C)C)[C@@H](C)CC [N-PAmonoalkyl] ({NHOctadecyl-Suc-PEG28}-WILEYLWKVPFDFWRGVI-NH2) | 0.2 µM | 5.87 µM | – | – | precipitated rather fast and made compact flocks | 17 µM | 85 | 0.28 µM | 2.53 (1.14) μM | – |
| CC[C@H](C)[C@H](NC(=O)[C@@H](NC(=O)CNC(=O)[C@H](CCCNC(=N)N)NC(=O)[C@H](Cc1c[nH]c2ccccc12)NC(=O)[C@H](Cc1ccccc1)NC(=O)[C@H](CC(=O)O)NC(=O)[C@H](Cc1ccccc1)NC(=O)[C@@H]1CCCN1C(=O)[C@@H](NC(=O)[C@H](CCCCN)NC(=O)[C@H](Cc1c[nH]c2ccccc12)NC(=O)[C@H](CC(C)C)NC(=O)[C@H](Cc1ccc(O)cc1)NC(=O)[C@H](CCC(=O)O)NC(=O)[C@H](CC(C)C)NC(=O)[C@@H](NC(=O)[C@@H](N)Cc1c[nH]c2ccccc12)[C@@H](C)CC)C(C)C)C(C)C)C(=O)N[C@@H](CCCCNC(=O)CCOCCOCCOCCOCCOCCOCCOCCOCCOCCOCCOCCOCCOCCOCCOCCOCCOCCOCCOCCOCCOCCOCCOCCOCCOCCOCCOCCOCCNC(=O)[C@@H](N)CSCC(=O)O[C@H]1CC[C@@]2(C)C(=CC[C@H]3[C@@H]4CC[C@H]([C@H](C)CCCC(C)C)[C@@]4(C)CC[C@@H]32)C1)C(N)=O [C-PAchol] (H-WILEYLWKVPFDFWRGVIK([PEG28-X1])-NH2) | 1.71 µM | – | – | 4.9 nm | bluish | > 40 µM | – | – | – | – |
